# pEC50: −log10 of the molar value.
# Target: T1, human PPARγ2 (Homo sapiens, UniProt P37231)
# T1 construct: the amino acids 182 to 505 of human PPARγ2; expressed in transfected cells; host or cells: COST cells (so in the source)
# T1 sequence (P37231 182-505): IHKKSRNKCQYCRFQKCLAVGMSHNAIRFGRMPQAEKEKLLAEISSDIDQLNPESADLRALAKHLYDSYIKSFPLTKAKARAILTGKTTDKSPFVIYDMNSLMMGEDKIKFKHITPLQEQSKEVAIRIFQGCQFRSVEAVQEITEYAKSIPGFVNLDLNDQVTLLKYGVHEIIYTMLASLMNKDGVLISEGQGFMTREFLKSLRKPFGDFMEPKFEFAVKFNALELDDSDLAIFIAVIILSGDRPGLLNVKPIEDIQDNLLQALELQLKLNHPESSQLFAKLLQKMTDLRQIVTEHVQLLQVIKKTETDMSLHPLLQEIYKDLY
# Test: PPARγ activation activity, Gal4-PPARγ2 LBD chimera luciferase transfection assay in COST cells
# Format: cell-based
# Conditions: Gal4 (aa 1-147)/human PPARγ2 LBD (aa 182-505) chimera, luciferase reporter, 16 hours, rosiglitazone (3 to 10 μmol/L) = 100%, read-out: EC50 (50% effective concentration, PPARγ activation)
# Protocol: PPARγ Activation Activity
# The agonistic activity of the compounds of the invention on PPARγ was measured based on the transfection assay using COST cells (DS Pharma Biomedical Co., Ltd., Osaka, Japan), which are the cell line derived from the kidney of the African green monkey. COST cells were cultured under 5% CO2 concentration, and DMEM medium containing 10% fetal bovine serum, glutamic acid, and antibiotics was used as a medium.
# As an expression vector, a chimera in which DNA binding domain of Ga14, which is a yeast transcription factor, and ligand binding domain of human PPARγ2 are fused, i.e., a fused product between the amino acids 1 to 147 of Gal4 transcription factor and the amino acids 182 to 505 of human PPARγ2, was used. Furthermore, as a reporter vector, a firefly luciferase containing five copies of Gal4 recognition sequence in the promoter region was used. Plasmid transfection to the cells was performed according to a method which uses jetPEI (trade name, manufactured by Funakoshi Co., Ltd., Tokyo, Japan). Furthermore, β-galactosidase expression vector was employed as an internal standard.
# After the transfection of the cells, the medium was replaced with a DMEM medium (containing 1% serum) added with the test compound, and the cells were further cultured for 16 hours. After that, the luciferase activity and β-galactosidase activity in the cell lysis solution were measured.
# For the present test, dimethylsulfoxide (DMSO) was used for dissolution and dilution of the test compounds, and during the cell treatment, the DMSO concentration in DMEM medium (containing 1% serum) was adjusted to 0.1%. As a positive compound, rosiglitazone (trade name, manufactured by ALEXIS Corporation, Switzerland) was used. The percentage (%) of the luciferase activity of the each test compound (1 to 30 μmol/L) was calculated when the luciferase activity of rosiglitazone (3 to 10 μmol/L) is 100% and the luciferase activity in the absence of the test compound is 0%. The 50% effective concentration of the test compound (EC50, 50% effect concentration) was calculated by using SAS Preclinical Package Ver 5.0 (trade name, manufactured by SAS institute Japan Co., Tokyo, Japan), which is a statistical analysis program.
row,SMILES,pEC50
1,"CCCCc1nc(C)nc(OCCc2ccc(OCCOC)c(OC)c2)c1Cc1ccc(-c2ccccc2-c2noc(=O)[nH]2)cc1 [Example 36, 3-{4′-{{4-butyl-6-[3-methoxy-4-(2-methoxyethoxy)phenethoxy]-2-methylpyrimidin-5-yl}methyl}-[1,1′-biphenyl]-2-yl}-1,2,4-oxadiazol-5 (4H)-one]",6.20
2,"CCCCc1nc(C)nc(OCCOCCOC)c1Cc1ccc(-c2ccccc2-c2noc(=O)[nH]2)cc1 [Example 13, 3-{4′-{{4-butyl-6-[2-(2-methoxyethoxy)ethoxy]-2-methylpyrimidin-5-yl}methyl}-[1,1′-biphenyl]-2-yl}-1,2,4-oxadiazol-5(4H)-one]",5.80
3,"CCCCc1nc(C)nc(OCCOC(C)C)c1Cc1ccc(-c2ccccc2-c2noc(=O)[nH]2)cc1 [Example 16, 3-{4′-{[4-butyl-6-(2-isopropoxyethoxy)-2-methylpyrimidin-5-yl]methyl}-[1,1′-biphenyl]-2-yl}-1,2,4-oxadiazol-5(4H)-one]",6.19
4,"CCCCc1nc(C)nc(OCC(C)O)c1Cc1ccc(-c2ccccc2-c2noc(=O)[nH]2)cc1 (stereo not shown) [Example 21, 3-{4′-{[4-butyl-6-(2-hydroxypropoxy)-2-methylpyrimidin-5-yl]methyl}-[1,1′-biphenyl]-2-yl}-1,2,4-oxadiazol-5(4H)-one]",6.40
5,"CCCCc1nc(C)nc(OCC(N)=O)c1Cc1ccc(-c2ccccc2-c2noc(=O)[nH]2)cc1 [Example 3, 2-{{6-butyl-2-methyl-5-{[2′-(5-oxo-4,5-dihydro-1,2,4-oxadiazol-3-yl)-[1,1′-biphenyl]-4-yl]methyl}pyrimidin-4-yl}oxy}acetamide]",5.54
6,"CCCCc1nc(C)nc(OC2CCC(O)CC2)c1Cc1ccc(-c2ccccc2-c2noc(=O)[nH]2)cc1 (stereo not shown) [Example 34, 3-{4′-{{4-butyl-6-[(4-hydroxycyclohexyl)oxy]-2-methylpyrimidin-5-yl]methyl}-[1,1′-biphenyl]-2-yl}-1,2,4-oxadiazol-5 (4H)-one]",5.87
7,"CCCCc1nc(C)nc(OCCCCOC)c1Cc1ccc(-c2ccccc2-c2noc(=O)[nH]2)cc1 [Example 23, 3-{4′-{[4-butyl-6-(4-methoxybutoxy)-2-methylpyrimidin-5-yl]methyl}-[1,1′-biphenyl]-2-yl}-1,2,4-oxadiazol-5(4H)-one]",6.15
8,"CCCc1nc2c(C)cc(-c3nc4ccccc4n3C)cc2n1Cc1ccc(-c2ccccc2C(=O)O)cc1 [telmisartan, reference compound]",5.30 to 6.00
9,"CCCCc1nc(C)nc(OC(C(=O)OC)c2ccccc2)c1Cc1ccc(-c2ccccc2-c2noc(=O)[nH]2)cc1 (stereo not shown) [Example 25, methyl 2-{{6-butyl-2-methyl-5-{[2′-(5-oxo-4,5-dihydro-1,2,4-oxadiazol-3-yl)-[1,1-biphenyl]-4-yl]methyl}pyrimidin-4-yl}oxy}-2-phenylacetate]",6.14

# Continued by rising pEC50, values first:
row,pEC50,SMILES
1,5.55,"CCCCc1nc(C)nc(OCCCC(=O)NCC)c1Cc1ccc(-c2ccccc2-c2noc(=O)[nH]2)cc1 [Example 9, 4-{{6-butyl-2-methyl-5-{[2′-(5-oxo-4,5-dihydro-1,2,4-oxadiazol-3-yl)-[1,1′-biphenyl]-4-yl]methyl}pyrimidin-4-yl}oxy}-N-ethylbutanamide]"
2,5.68,"CCCCc1nc(C)nc(OCC(=O)N2CCCC2)c1Cc1ccc(-c2ccccc2-c2noc(=O)[nH]2)cc1 [Example 29, 3-{4′-{{4-butyl-2-methyl-6-[2-oxo-2-(pyrrolidin-1-yl)ethoxy]pyrimidin-5-yl}methyl}-[1,1′-biphenyl]-2-yl}-1,2,4-oxadiazof-5 (4H)-one]"
3,5.75,"CCCCc1nc(C)nc(OCCCC(=O)N(CC)CC)c1Cc1ccc(-c2ccccc2-c2noc(=O)[nH]2)cc1 [Example 10, 4-{{6-butyl-2-methyl-5-{[2′-(5-oxo-4,5-dihydro-1,2,4-oxadiazol-3-yl)-[1,1′-biphenyl]-4-yl]methyl}pyrimidin-4-yl}oxy}-N,N-diethylbutanamide]"
4,5.82,"CCCCc1nc(C)nc(OC2CCC(=O)CC2)c1Cc1ccc(-c2ccccc2-c2noc(=O)[nH]2)cc1 [Example 35, 3-{4′-{{4-butyl-2-methyl-6-[(4-oxocyclohexyl)oxy]pyrimidin-5-yl}methyl}-[1,1′-biphenyl]-2-yl}-1,2,4-oxadiazol-5(4H)-one]"
5,5.86,"CCCCc1nc(C)nc(OCC2OCCO2)c1Cc1ccc(-c2ccccc2-c2noc(=O)[nH]2)cc1 [Example 24, 3-{4′-{{4-[(1,3-dioxolan-2-yl)methoxy]-6-butyl-2-methylpyrimidin-5-yl}methyl}-[1,1′-biphenyl]-2-yl}-1,2,4-oxadiazol-5(4H)-one]"
6,6.06,"CCCCc1nc(C)nc(OCC(OC)OC)c1Cc1ccc(-c2ccccc2-c2noc(=O)[nH]2)cc1 [Example 19, 3-{4′-{[4-butyl-6-(2,2-dimethoxyethoxy)-2-methylpyrimidin-5-yl]methyl}-[1,1′-biphenyl]-2-yl}-1,2,4-oxadiazol-5(4H)-one]"
7,6.06,"CCCCc1nc(C)nc(OCCOCC)c1Cc1ccc(-c2ccccc2-c2noc(=O)[nH]2)cc1 [Example 11, 3-{4′-{[4-butyl-6-(2-ethoxyethoxy)-2-methylpyrimidin-5-yl]methyl}-[1,1′-biphenyl]-2-yl}-1,2,4-oxadiazol-5(4H)-one]"
8,6.08,"CCCCCc1nc(C)nc(OCCOC)c1Cc1ccc(-c2ccccc2-c2noc(=O)[nH]2)cc1 [Example 37, 3-{4′-{[4-(2-methoxyethoxy)-2-methyl-6-pentylpyrimidin-5-yl]methyl}-[1,1′-biphenyl]-2-yl}-1,2,4-oxadiazol-5(4H)-one]"
9,6.24,"CCCCc1nc(C)nc(OCCOCCC)c1Cc1ccc(-c2ccccc2-c2noc(=O)[nH]2)cc1 [Example 12, 3-{4′-{[4-butyl-2-methyl-6-(2-propoxyethoxy)pyrimidin-5-yl]methyl}-[1,1′-biphenyl]-2-yl}-1,2,4-oxadiazol-5(4H)-one]"
10,6.39,"CCCCc1nc(C)nc(OCCSC)c1Cc1ccc(-c2ccccc2-c2noc(=O)[nH]2)cc1 [Example 17, 3-{4′-{{4-butyl-2-methyl-6-[2-(methylthio)ethoxy]pyrimidin-5-yl}methyl}-[1,1′-biphenyl]-2-yl}-1,2,4-oxadiazol-5(4H)-one]"
11,6.42,"CCCCc1nc(C)nc(OCc2nc(-c3ccc(C)cc3)oc2C)c1Cc1ccc(-c2ccccc2-c2noc(=O)[nH]2)cc1 [Example 32, 3-{4′-{{4-butyl-2-methyl-6-{[5-methyl-2-(p-tolyl)oxazol-4-yl]methoxy}pyrimidin-5-yl}methyl}-[1,1′-biphenyl]-2-yl}-1,2,4-oxadiazol-5(4H)-one]"
12,6.51,"CCCCc1nc(C)nc(OCC(OCC)OCC)c1Cc1ccc(-c2ccccc2-c2noc(=O)[nH]2)cc1 [Example 20, 3-{4′-{[4-butyl-6-(2,2-diethoxyethoxy)-2-methylpyrimidin-5-yl]methyl}-[1,1′-biphenyl]-2-yl}-1,2,4-oxadiazol-5(4H)-one]"
13,6.54,"CCCCc1nc(C)nc(OCCOCc2ccccc2)c1Cc1ccc(-c2ccccc2-c2noc(=O)[nH]2)cc1 [Example 14, 3-{4′-{{4-[2-(benzyloxy)ethoxy]-6-butyl-2-methylpyrimidin-5-yl}methyl}-[1,1′-biphenyl]-2-yl}-1,2,4-oxadiazol-5(4H)-one]"
